IC50 data for 48 molecules are collected here from patent US10668047B2, “Aziridine containing DNA alkylating agents” (priority 2015, dated 2020).

The subject of the assay is H460 non-cell lung cancer human tumor cell line. The assay can be described thus: In vitro human tumor cell line cytotoxicity (proliferation) assay, AlamarBlue. Format: cell-based. The method, boiled down: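 H460 cells (4×10^3/well) attached for 24 h, then were exposed to compound for 2 hours at 37° C. before washout and 70 hrs further growth in fresh medium. Viable cells were measured by AlamarBlue, and IC50 (50% growth inhibition) was determined relative to media-only control.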
On the technique in general: Resazurin is reduced to fluorescent resorufin, in cell work by metabolically active cells.

The mark [1] stands for this setting: Homo sapiens, NCI-H460, H460 cells, under air, 2 hrs exposure, wash, then 70 hrs growth, read-out: IC50 (air).
[2] abbreviates: Homo sapiens, NCI-H460, H460 cells, under nitrogen, 2 hrs exposure, wash, then 70 hrs growth, read-out: IC50 (N2).
Setting [3] is: Homo sapiens, NCI-H460, read-out: IC50 (N2), H460 cells, under nitrogen, 2 hrs exposure, wash, then 70 hrs growth.
Where [4] appears, read: Homo sapiens, NCI-H460, read-out: IC50 (air), H460 cells, under air, 2 hrs exposure, wash, then 70 hrs growth.
[5] abbreviates: H460 cells, under air, 2 hrs exposure, wash, then 70 hrs growth, read-out: IC50 (air).
Where [6] appears, read: H460 cells, under nitrogen, 2 hrs exposure, wash, then 70 hrs growth, read-out: IC50 (N2).

Like-named read-outs stand apart in the source and are kept apart here.

Consider `CC(OP(=O)(N1CC1)N1CC1)c1cc(N(C)CCN(C)C)c([N+](=O)[O-])cc1F` (stereo not drawn) [compound 2745], for which the 50% inhibitory concentration (IC50) turned out to be 58000 nM under setting [1] and 300 nM under setting [2].

`CC(OP(=O)(N1CC1)N1CC1)c1ccc([N+](=O)[O-])c(-n2cnc(CO)c2)c1` (stereo not drawn) [compound 2746]: the IC50 runs as follows: under setting [1], 220000 nM; under setting [2], 2600 nM.

On to `Cc1cn(-c2cc(C(C)OP(=O)(N3CC3)N3CC3)ccc2[N+](=O)[O-])cn1` (stereo not drawn) [compound 2747], for which the IC50 by setting is: under setting [1], 39000 nM; under setting [2], 300 nM.

For the molecule `CC(OP(=O)(N1CC1)N1CC1)c1ccc([N+](=O)[O-])c(-n2cccn2)c1` (stereo not drawn) [compound 2748], the IC50 under setting [1] is 38000 nM and the IC50 under setting [2] is 300 nM.

Take `CC(OP(=O)(N1CC1)N1CC1)c1ccc([N+](=O)[O-])c(-n2cnc(-c3ccccc3)c2)c1` (stereo not drawn) [compound 2749]: the half-maximal inhibitory concentration (IC50) reads like this: under setting [1], 3000 nM; under setting [2], 100 nM.

Take `CC(OP(=O)(N1CC1)N1CC1)c1ccc([N+](=O)[O-])c(N2CCC(c3ccccc3)CC2)c1` (stereo not drawn) [compound 2750]: the IC50 came out at 23000 nM under setting [1] and 2400 nM under setting [2].

`CC(OP(=O)(N1CC1)N1CC1)c1ccc([N+](=O)[O-])c(N2CCN(C(C)C)CC2)c1` (stereo not drawn) [compound 2751]: the IC50 was 36000 nM under setting [1] and 1700 nM under setting [2].

`CC(OP(=O)(N1CC1)N1CC1)c1ccc([N+](=O)[O-])c(N2CCC(O)CC2)c1` (stereo not drawn) [compound 2752]: the IC50 under setting [1] worked out at 270000 nM and the IC50 under setting [2] is 5700 nM.

For `COCCN(CCOC)c1cc(C(C)OP(=O)(N2CC2)N2CC2)ccc1[N+](=O)[O-]` (stereo not drawn) [compound 2753], the IC50 under setting [1] was found to be 19000 nM and the IC50 under setting [2] turned out to be 3200 nM.

`Cc1nccn1-c1cc(C(C)OP(=O)(N2CC2)N2CC2)c(F)cc1[N+](=O)[O-]` (stereo not drawn) [compound 2755]: the IC50 came out at 4400 nM under setting [1] and 30 nM under setting [2].

Turning to `CC(OP(=O)(N1CC1)N1CC1)c1ccc([N+](=O)[O-])c(N2CCN(Cc3cnc([N+](=O)[O-])n3C)CC2)c1` (stereo not drawn) [compound 2756], the IC50 runs as follows: under setting [3], 2800 nM; under setting [4], 45000 nM.

For `CC(OP(=O)(N1CC1)N1CC1)c1ccc([N+](=O)[O-])c(N(C)CCN2CCOCC2)c1` (stereo not drawn) [compound 2757], the IC50 under setting [3] was found to be 3800 nM and the IC50 under setting [4] worked out at 380000 nM.

`CC(OP(=O)(N1CC1)N1CC1)c1ccc([N+](=O)[O-])c(-n2cnc(C(C)(C)C)c2)c1` (stereo not drawn) [compound 2759]: the IC50 under setting [1] came out at 100000 nM and the half-inhibitory concentration (IC50) under setting [2] was 400 nM.

For the molecule `CC(OP(=O)(N1CC1)N1CC1)c1cc(-n2cnc(CO)c2)c([N+](=O)[O-])cc1F` (stereo not drawn) [compound 2760], the IC50 under setting [1] stood at 53000 nM and the IC50 under setting [2] is 2400 nM.

For `CC(OP(=O)(N1CC1)N1CC1)c1ccc([N+](=O)[O-])c(-n2ccc3ncccc32)c1` (stereo not drawn) [compound 2763], the IC50 under setting [1] came to 5000 nM and the IC50 under setting [2] stood at 100 nM.

On to `CC(OP(=O)(N1CC1)N1CC1)c1ccc([N+](=O)[O-])c(-n2ccnc2Cl)c1` (stereo not drawn) [compound 2765], for which the IC50 amounted to 8100 nM under setting [1] and 30 nM under setting [2].

For the molecule `CC(OP(=O)(N1CC1)N1CC1)c1ccc([N+](=O)[O-])c(-n2ccnc2-c2ccccc2)c1` (stereo not drawn) [compound 2766], the IC50 under setting [1] amounted to 4800 nM and the IC50 under setting [2] was determined as 700 nM.

Take `CC(OP(=O)(N1CC1)N1CC1)c1ccc([N+](=O)[O-])c(-n2ncc3ccccc32)c1` (stereo not drawn) [compound 2767]: the IC50 came out at 2300 nM under setting [1] and 200 nM under setting [2].

As to `CC(OP(=O)(N1CC1)N1CC1)c1ccc([N+](=O)[O-])c(-n2nccn2)c1` (stereo not drawn) [compound 2771], the IC50 under setting [1] was determined as 14000 nM and the IC50 under setting [2] is 30 nM.

With `CC(OP(=O)(N1CC1)N1CC1)c1ccc([N+](=O)[O-])c(-n2ccnn2)c1` (stereo not drawn) [compound 2772], the IC50 by setting is: under setting [1], 26000 nM; under setting [2], 50 nM.

With `CC(OP(=O)(N1CC1)N1CC1)c1ccc([N+](=O)[O-])c(Br)c1` (stereo not drawn) [compound 2773], the IC50 is 16000 nM under setting [1] and 700 nM under setting [2].

For the molecule `CC(OP(=O)(N1CC1)N1CC1)c1ccc([N+](=O)[O-])c(-c2ccc(C(F)(F)F)cc2)c1` (stereo not drawn) [compound 2774], the IC50 came out at 3500 nM under setting [1] and 800 nM under setting [2].

On to `CC(OP(=O)(N1CC1)N1CC1)c1ccc([N+](=O)[O-])c(-c2ccc(C#N)cc2)c1` (stereo not drawn) [compound 2775], for which the IC50 under setting [1] turned out to be 2500 nM and the IC50 under setting [2] was determined as 300 nM.

Regarding `C=Cc1cc(C(C)OP(=O)(N2CC2)N2CC2)ccc1[N+](=O)[O-]` (stereo not drawn) [compound 2776], the IC50 is, setting by setting: under setting [1], 2500 nM; under setting [2], 400 nM.

For `CC(OP(=O)(N1CC1)N1CC1)c1ccc([N+](=O)[O-])c(-n2nnc3ccccc32)c1` (stereo not drawn) [compound 2777], the IC50 worked out at 3400 nM under setting [1] and 10 nM under setting [2].

Turning to `CC(OP(=O)(N1CC1)N1CC1)c1ccc([N+](=O)[O-])c(-c2ccco2)c1` (stereo not drawn) [compound 2782], the IC50 reads like this: under setting [1], 41000 nM; under setting [2], 1700 nM.

Turning to `CC(OP(=O)(N1CC1)N1CC1)c1ccc([N+](=O)[O-])c(-c2cccs2)c1` (stereo not drawn) [compound 2783], the IC50 runs as follows: under setting [1], 51000 nM; under setting [2], 1700 nM.

As for `CC(OP(=O)(N1CC1)N1CC1)c1ccc([N+](=O)[O-])c(-c2ccccc2)c1` (stereo not drawn) [compound 2785], the IC50 runs as follows: under setting [1], 47000 nM; under setting [2], 1600 nM.

Regarding `CC(OP(=O)(N1CC1)N1CC1)c1ccc([N+](=O)[O-])c(-c2ccccc2F)c1` (stereo not drawn) [compound 2786], the IC50 is 69000 nM under setting [1] and 2500 nM under setting [2].

For `CC(OP(=O)(N1CC1)N1CC1)c1cc(-n2nnc3ccccc32)c([N+](=O)[O-])cc1F` (stereo not drawn) [compound 2787], the IC50 was 2300 nM under setting [1] and 20 nM under setting [2].

Consider `CC(OP(=O)(N1CC1)N1CC1)c1ccc([N+](=O)[O-])c(-c2ccc(F)cc2)c1` (stereo not drawn) [compound 2788], for which the IC50 was determined as 22000 nM under setting [1] and 1300 nM under setting [2].

`Cc1ccc(-c2cc(C(C)OP(=O)(N3CC3)N3CC3)ccc2[N+](=O)[O-])cc1` (stereo not drawn) [compound 2789]: the IC50 is, setting by setting: under setting [1], 36000 nM; under setting [2], 2400 nM.

For `CC(OP(=O)(N1CC1)N1CC1)c1ccc([N+](=O)[O-])c(-c2ccc(-c3ccccc3)cc2)c1` (stereo not drawn) [compound 2790], the IC50 reads like this: under setting [1], 4000 nM; under setting [2], 1800 nM.

Turning to `C#Cc1cc(C(C)OP(=O)(N2CC2)N2CC2)ccc1[N+](=O)[O-]` (stereo not drawn) [compound 2792], the IC50 is, setting by setting: under setting [1], 3700 nM; under setting [2], 200 nM.

With `CC(OP(=O)(N1CC1)N1CC1)c1ccc([N+](=O)[O-])c(-c2cn(COC(=O)C(C)(C)C)nn2)c1` (stereo not drawn) [compound 2793], the IC50 under setting [1] turned out to be 4000 nM and the IC50 under setting [2] came to 400 nM.

With `CC(OP(=O)(N1CC1)N1CC1)c1ccc([N+](=O)[O-])c(-n2c(N)nc3ccccc32)c1` (stereo not drawn) [compound 2798], the IC50 reads like this: under setting [1], 32000 nM; under setting [2], 600 nM.

Turning to `CC(OP(=O)(N1CC1)N1CC1)c1ccc([N+](=O)[O-])c(-c2ccccc2C(F)(F)F)c1` (stereo not drawn) [compound 2799], the IC50 under setting [1] came out at 37000 nM and the IC50 under setting [2] was 2300 nM.

On to `Cc1ccccc1-c1cc(C(C)OP(=O)(N2CC2)N2CC2)ccc1[N+](=O)[O-]` (stereo not drawn) [compound 2800], for which the IC50 reads like this: under setting [1], 30000 nM; under setting [2], 1300 nM.

Consider `CC(OP(=O)(N1CC1)N1CC1)c1ccc([N+](=O)[O-])c(-c2cccc(C#N)c2)c1` (stereo not drawn) [compound 2801], for which the IC50 was 47000 nM under setting [1] and 2200 nM under setting [2].

Consider `CC(OP(=O)(N1CC1)N1CC1)c1ccc([N+](=O)[O-])c(-c2cccc(C(F)(F)F)c2)c1` (stereo not drawn) [compound 2802], for which the IC50 reads like this: under setting [1], 22000 nM; under setting [2], 2800 nM.

Take `CC(OP(=O)(N1CC1)N1CC1)c1ccc([N+](=O)[O-])c(-n2ccnc2)c1` (stereo not drawn) [compound 2803]: the IC50 is, setting by setting: under setting [5], 150000 nM; under setting [6], 300 nM.

With `CC(OP(=O)(N1CC1)N1CC1)c1ccc([N+](=O)[O-])c(-n2ccnc2)c1` (stereo not drawn) [compound 2804], the IC50 is, setting by setting: under setting [5], 310000 nM; under setting [6], 600 nM.

As for `CC(OP(=O)(N1CC1)N1CC1)c1ccc([N+](=O)[O-])c(-c2cn(-c3ccc(F)cc3)nn2)c1` (stereo not drawn) [compound 2806], the IC50 was 5400 nM under setting [1] and 300 nM under setting [2].

For `CC(OP(=O)(N1CC1)N1CC1)c1ccc([N+](=O)[O-])c(-n2ccnc2Br)c1` (stereo not drawn) [compound 2807], the IC50 under setting [1] turned out to be 13000 nM and the IC50 under setting [2] was 30 nM.

Take `CC(OP(=O)(N1CC1)N1CC1)c1ccc([N+](=O)[O-])c(C[N+](=O)[O-])c1` (stereo not drawn) [compound 2811]: the 50% inhibitory concentration (IC50) is, setting by setting: under setting [3], 100 nM; under setting [4], 8400 nM.

Consider `CC(OP(=O)(N1CC1)N1CC1)c1ccc([N+](=O)[O-])c(C(F)F)c1` (stereo not drawn) [compound 2821], for which the IC50 reads like this: under setting [1], 5000 nM; under setting [2], 50 nM.

On to `CC(OP(=O)(N1CC1)N1CC1)c1ccc([N+](=O)[O-])c(CF)c1` (stereo not drawn) [compound 2822], for which the IC50 was 3100 nM under setting [1] and 300 nM under setting [2].

Consider `CC(OP(=O)(N1CC1)N1CC1)c1ccc([N+](=O)[O-])c2ccccc12` (stereo not drawn) [compound 2824], for which the IC50 was 1700 nM under setting [1] and 20 nM under setting [2].

The term IC50 denotes the concentration at which inhibition is half-maximal.
